Measurements reported in patent US9586951B2 (FUJIFILM Corporation, priority 2013, dated 2017).

These molecules were tested against T1, ATM (Homo sapiens, UniProt Q13315) (assay: ATM inhibition test (phosphorylation of Chk2 generated by ionizing radiation, AlphaScreen SureFire)). Details: phosphorylated Chk2 in NCI-H460 cells, ionizing radiation 8Gy, 1 hour after test compound treatment; read-out: ATM inhibitory activity.
T1 construct: detecting phosphorylation of Chk2 in a human non-small cell lung cancer cell line NCI-H460 (ATCC company); host or cells: NCI-H460 human non-small cell lung cancer cells
T1 sequence (Q13315 whole entry): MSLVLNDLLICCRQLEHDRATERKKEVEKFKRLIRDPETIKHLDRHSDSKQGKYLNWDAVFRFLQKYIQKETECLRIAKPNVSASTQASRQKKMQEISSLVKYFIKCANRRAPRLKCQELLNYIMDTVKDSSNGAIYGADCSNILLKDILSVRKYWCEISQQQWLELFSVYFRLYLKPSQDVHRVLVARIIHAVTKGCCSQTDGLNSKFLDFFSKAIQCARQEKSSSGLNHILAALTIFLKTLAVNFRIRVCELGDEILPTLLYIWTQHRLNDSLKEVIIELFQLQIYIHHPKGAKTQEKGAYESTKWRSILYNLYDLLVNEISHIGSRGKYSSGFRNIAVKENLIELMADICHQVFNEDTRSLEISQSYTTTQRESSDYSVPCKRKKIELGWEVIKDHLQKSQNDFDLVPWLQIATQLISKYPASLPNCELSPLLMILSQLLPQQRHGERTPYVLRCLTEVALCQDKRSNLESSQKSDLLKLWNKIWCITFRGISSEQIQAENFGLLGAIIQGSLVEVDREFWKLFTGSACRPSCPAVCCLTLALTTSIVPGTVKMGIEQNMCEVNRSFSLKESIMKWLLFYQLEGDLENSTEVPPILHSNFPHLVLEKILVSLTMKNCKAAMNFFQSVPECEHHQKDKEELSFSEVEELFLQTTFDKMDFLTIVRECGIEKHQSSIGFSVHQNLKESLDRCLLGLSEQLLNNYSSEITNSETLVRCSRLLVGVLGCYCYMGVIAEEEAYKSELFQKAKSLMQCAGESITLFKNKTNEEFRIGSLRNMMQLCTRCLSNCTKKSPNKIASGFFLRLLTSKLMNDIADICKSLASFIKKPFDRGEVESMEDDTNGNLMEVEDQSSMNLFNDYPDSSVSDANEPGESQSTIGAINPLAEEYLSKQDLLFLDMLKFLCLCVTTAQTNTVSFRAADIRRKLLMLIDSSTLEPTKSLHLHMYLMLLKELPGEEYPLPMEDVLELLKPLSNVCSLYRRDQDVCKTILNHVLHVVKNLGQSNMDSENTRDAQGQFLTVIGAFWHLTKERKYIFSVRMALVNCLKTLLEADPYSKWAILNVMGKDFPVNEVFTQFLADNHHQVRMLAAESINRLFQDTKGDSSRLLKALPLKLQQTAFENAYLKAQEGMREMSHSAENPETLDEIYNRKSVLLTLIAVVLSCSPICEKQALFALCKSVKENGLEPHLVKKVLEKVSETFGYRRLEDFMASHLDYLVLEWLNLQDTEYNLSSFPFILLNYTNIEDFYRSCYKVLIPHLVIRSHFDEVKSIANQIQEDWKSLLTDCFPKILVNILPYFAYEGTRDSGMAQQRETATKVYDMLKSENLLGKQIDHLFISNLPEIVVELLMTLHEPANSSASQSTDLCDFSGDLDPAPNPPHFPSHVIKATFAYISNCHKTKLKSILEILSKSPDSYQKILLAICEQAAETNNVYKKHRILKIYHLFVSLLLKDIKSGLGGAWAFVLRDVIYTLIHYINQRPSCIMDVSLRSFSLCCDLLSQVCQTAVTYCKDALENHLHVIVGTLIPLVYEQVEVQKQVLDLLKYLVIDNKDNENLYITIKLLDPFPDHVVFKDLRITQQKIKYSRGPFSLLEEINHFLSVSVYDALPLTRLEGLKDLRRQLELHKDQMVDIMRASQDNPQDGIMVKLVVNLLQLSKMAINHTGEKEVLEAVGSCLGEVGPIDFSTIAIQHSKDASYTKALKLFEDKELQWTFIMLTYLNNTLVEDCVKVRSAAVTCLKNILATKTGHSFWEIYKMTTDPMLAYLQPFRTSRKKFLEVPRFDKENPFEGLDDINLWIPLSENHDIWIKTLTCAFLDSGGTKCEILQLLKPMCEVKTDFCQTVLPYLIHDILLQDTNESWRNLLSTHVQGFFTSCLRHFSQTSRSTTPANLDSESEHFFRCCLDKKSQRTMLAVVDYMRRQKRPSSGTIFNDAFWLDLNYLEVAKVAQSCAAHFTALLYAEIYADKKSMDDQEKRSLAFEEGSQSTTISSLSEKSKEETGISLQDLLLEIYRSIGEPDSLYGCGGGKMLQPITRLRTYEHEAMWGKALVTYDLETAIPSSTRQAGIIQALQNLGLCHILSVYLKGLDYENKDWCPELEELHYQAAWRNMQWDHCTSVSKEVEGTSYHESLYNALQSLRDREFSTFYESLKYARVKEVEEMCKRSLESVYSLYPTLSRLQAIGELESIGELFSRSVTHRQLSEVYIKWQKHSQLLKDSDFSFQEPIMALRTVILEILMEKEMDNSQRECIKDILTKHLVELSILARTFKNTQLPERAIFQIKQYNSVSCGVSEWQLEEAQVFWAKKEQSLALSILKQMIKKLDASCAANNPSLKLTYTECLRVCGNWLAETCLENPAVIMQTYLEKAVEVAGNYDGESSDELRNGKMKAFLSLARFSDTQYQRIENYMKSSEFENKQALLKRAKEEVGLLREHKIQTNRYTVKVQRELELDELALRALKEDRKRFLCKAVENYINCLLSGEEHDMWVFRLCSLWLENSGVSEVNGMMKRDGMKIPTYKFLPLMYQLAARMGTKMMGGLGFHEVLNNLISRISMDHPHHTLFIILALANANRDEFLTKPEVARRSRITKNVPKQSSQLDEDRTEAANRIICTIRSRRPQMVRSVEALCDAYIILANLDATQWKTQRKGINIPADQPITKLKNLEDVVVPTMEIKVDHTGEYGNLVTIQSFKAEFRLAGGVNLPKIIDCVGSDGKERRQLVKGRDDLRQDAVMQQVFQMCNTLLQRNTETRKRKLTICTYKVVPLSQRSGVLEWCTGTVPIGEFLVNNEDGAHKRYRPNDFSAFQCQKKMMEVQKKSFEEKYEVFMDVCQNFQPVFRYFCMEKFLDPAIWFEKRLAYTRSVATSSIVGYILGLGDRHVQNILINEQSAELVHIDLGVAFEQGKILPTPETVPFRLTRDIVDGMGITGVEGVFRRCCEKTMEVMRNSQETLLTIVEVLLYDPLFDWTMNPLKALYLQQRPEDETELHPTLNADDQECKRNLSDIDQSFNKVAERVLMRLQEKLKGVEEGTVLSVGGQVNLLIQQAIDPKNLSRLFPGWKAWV
Type: cell-based
How it was run: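 Human NCI-H460 lung cancer cells were treated with compound for 1 h, then irradiated at 8Gy and incubated 1 h at 37° C. Phospho-Chk2 was quantified by AlphaScreen SureFire; inhibition % was normalised between irradiated untreated and non-irradiated untreated wells.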

Compound | IC50 [µM]
CC(CNC1CCCC1)Nc1ccc2c(c1)Sc1cccc(-c3cc(N4CCOCC4)cc(=O)[nH]3)c1S2 (stereo not shown) [Example 1-13-8, 6-(7-((1-(Cyclopentylamino)propan-2-yl)amino)thianthren-1-yl)-4-morpholino pyridin-2 (1H)-one] | 0.1 to 0.5
O=c1cc(N2CCOCC2)cc(-c2cccc3c2Sc2ccc(NCc4nccs4)cc2S3)[nH]1 [Example 1-12-52, 4-Morpholino-6-(7-((thiazol-2-ylmethyl)amino)thianthren-1-yl) pyridin-2 (1H)-one] | 0.1 to 0.5
O=C(CNc1ccc2c(c1)Sc1cccc(-c3cc(N4CCOCC4)cc(=O)[nH]3)c1S2)N1CCCCC1 [Example 1-18-2] | 0.1 to 0.5
CC(Nc1ccc2c(c1)Sc1cccc(-c3cc(N4CCOCC4)cc(=O)[nH]3)c1S2)[C@H](C)N1CCOCC1 (stereo partly shown) [Example 1-21-5, 6-(7-(((3 S)-3-morpholinobutan-2-yl)amino)thianthren-1-yl)-4-morpholinopyridin-2(1H)-one] | 0.1 to 0.5
CCCCC(Nc1ccc2c(c1)Sc1cccc(-c3cc(N4CCOCC4)cc(=O)[nH]3)c1S2)[C@H](C)N (stereo partly drawn) [Example 1-20-3, 6-(7-(((2S)-2-Aminoheptan-3-yl)amino)thianthren-1-yl)-4-morpholino pyridin-2(1H)-one] | 0.1 to 0.5
Cc1ccnc(C(CO)Nc2ccc3c(c2)Cc2cccc(-c4cc(N5CCOCC5)cc(=O)[nH]4)c2O3)c1 (racemic) [Example 2-14-39, 6-(7-((2-Hydroxy-1-(4-methylpyridin-2-yl)ethyl)amino)-9H-xanthen-4-yl)-4-morpholino pyridin-2 (1H)-one] | 0.1 to 0.5
Cc1cc(CNc2ccc3c(c2)Sc2cccc(-c4cc(N5CCOCC5)cc(=O)[nH]4)c2S3)ccn1 [Example 1-44-3, 6-(7-(((2-Methylpyridin-4-yl)methyl)amino)thianthren-1-yl)-4-morpholino pyridin-2(1H)-one] | 0.1 to 0.5
O=c1cc(N2CCOCC2)cc(-c2cccc3c2Oc2ccc(NC4CCN(CCCc5ccccc5)CC4)cc2C3)[nH]1 [Example 2-28-34, 4-Morpholino-6-(7-((1-(3-phenylpropyl)piperidin-4-yl)amino)-9H-xanthen-4-yl) pyridin-2(1H)-one] | 0.5 to 2
CCOc1ccnc(CN2CCC(Nc3ccc4c(c3)Cc3cccc(-c5cc(N6CCOCC6)cc(=O)[nH]5)c3O4)CC2)c1 [Example 2-28-36, 6-(7-((1-((4-Ethoxypyridin-2-yl)methyl)piperidin-4-yl)amino)-9H-xanthen-4-yl)-4-morpholino pyridin-2(1H)-one] | 0.1 to 0.5
CN1CCC(Nc2ccc3c(c2)Cc2cccc(-c4cc(N5CCOCC5)cc(=O)[nH]4)c2S3)CC1 [Example 3-8-13, 6-(7-((1-Methylpiperidin-4-yl)amino)-9H-thioxanthen-4-yl)-4-morpholino pyridin-2 (1H)-one] | 0.1 to 0.5
CC(CN1CCN(C)CC1)Nc1ccc2c(c1)Sc1cccc(-c3cc(N4CCOCC4)cc(=O)[nH]3)c1S2 (single isomer, unassigned) [Example 1-13-3-3, 6-(7-((1-(4-methylpiperazin-1-yl)propan-2-yl)amino)thianthren-1-yl)-4-morpholinopyridin-2(1H)-one] | 0.1 to 0.5
CNc1ncccc1CNc1ccc2c(c1)Cc1cccc(-c3cc(N4CCOCC4)cc(=O)[nH]3)c1O2 [Example 2-2-26, 6-(7-(((2-(Methylamino)pyridin-3-yl)methyl)amino)-9H-xanthen-4-yl)-4-morpholino pyridin-2(1H)-one] | 0.1 to 0.5
CN(C)Cc1cc(CNc2ccc3c(c2)Cc2cccc(-c4cc(N5CCOCC5)cc(=O)[nH]4)c2O3)ccn1 [Example 2-21-8, 6-(7-(((2-((Dimethylamino)methyl)pyridin-4-yl)methyl)amino)-9H-xanthen-4-yl)-4-morpholino pyridin-2(1H)-one] | 0.5 to 2
O=c1cc(N2CCOCC2)cc(-c2cccc3c2Oc2ccccc2S3)[nH]1 [Example 4-12, 4-Morpholino-6-(phenoxathiin-4-yl)pyridin-2(1H)-one] | 0.5 to 2
Cc1cnc(C(CCN(C)C)Nc2ccc3c(c2)Sc2cccc(-c4cc(=O)cc(N5CCOCC5)o4)c2O3)cn1 (single isomer, unassigned) [Example 10-9, 2-(8-((3-(Dimethylamino)-1-(5-methylpyrazin-2-yl)propyl)amino)phenoxathiin-4-yl)-6-morpholino-4H-pyran-4-one] | < 0.1
O=c1cc(N2CCOCC2)cc(-c2cc(F)cc3c2Oc2ccc(NCc4cccc(Cl)n4)cc2C3)[nH]1 [Example 2-48-2, 6-(7-(((6-Chloropyridin-2-yl)methyl)amino)-2-fluoro-9H-xanthen-4-yl)-4-morpholinopyridin-2(1H)-one] | 0.1 to 0.5
COC[C@H](CN1CCOCC1)Nc1ccc2c(c1)Sc1cccc(-c3cc(=O)cc(N4CCOCC4)o3)c1S2 [Example 11-3, (S)-2-(7-((1-methoxy-3-morpholinopropan-2-yl)amino)thianthren-1-yl)-6-morpholino-4H-pyran-4-one] | < 0.1

Compound | IC50 [µM]
CCCC(Nc1ccc2c(c1)Sc1cccc(-c3cc(N4CCOCC4)cc(=O)[nH]3)c1S2)[C@H](C)N1CCOCC1 (stereo partly drawn) [Example 1-21-1, 6-(7-(((2S)-2-morpholinohexan-3-yl)amino)thianthren-1-yl)-4-morpholinopyridin-2(1H)-one] | 0.1 to 0.5
O=c1cc(N2CCOCC2)cc(-c2cccc3c2Oc2ccc(NCc4ccc(N5CCOCC5)nc4)cc2C3)[nH]1 [Example 2-2-6, 4-Morpholino-6-(7-(((6-morpholinopyridin-3-yl)methyl)amino)-9H-xanthen-4-yl)pyridin-2(1H)-one] | 0.1 to 0.5
O=c1cc(N2CCOCC2)cc(-c2cccc3c2Oc2ccc(NC4CCNCC4)cc2S3)[nH]1 [Example 4-9, 4-Morpholino-6-(8-(piperidin-4-ylamino)phenoxathiin-4-yl)pyridin-2(1H)-one] | 0.1 to 0.5
O=c1cc(N2CCOCC2)cc(-c2cccc3c2Sc2ccc(NC4CCC(N5CCOCC5)CC4)cc2S3)[nH]1 (stereo not shown) [Example 1-36-1, 4-Morpholino-6-(7-((4-morpholinocyclohexyl)amino)thianthren-1-yl)pyridin-2(1H)-one] | 0.1 to 0.5
O=c1cc(N2CCOCC2)cc(-c2cccc3c2Oc2ccc(NC4CCOC4)cc2C3)[nH]1 (stereo not shown) [Example 2-16, 4-Morpholino-6-(7-((tetrahydrofuran-3-yl)amino)-9H-xanthen-4-yl)pyridin-2(1H)-one] | 0.5 to 2
Cn1cc(-c2cncc(CNc3ccc4c(c3)Sc3cccc(-c5cc(N6CCOCC6)cc(=O)[nH]5)c3O4)c2)cn1 [Example 4-4-11, 6-(8-(((5-(1-Methyl-1H-pyrazol-4-yl)pyridin-3-yl)methyl)amino)phenoxathiin-4-yl)-4-morpholino pyridin-2 (1H)-one] | 0.1 to 0.5
CNc1ncccc1CNc1ccc2c(c1)Sc1cccc(-c3cc(N4CCOCC4)cc(=O)[nH]3)c1S2 [Example 1-12-24, 6-(7-(((2-(Methylamino)pyridin-3-yl)methyl)amino)thianthren-1-yl)-4-morpholino pyridin-2(1H)-one] | 0.1 to 0.5
COCc1ccc(CNc2ccc3c(c2)Cc2cccc(-c4cc(N5CCOCC5)cc(=O)[nH]4)c2O3)cn1 [Example 2-2-43, 6-(7-(((6-(Methoxymethyl)pyridin-3-yl)methyl)amino)-9H-xanthen-4-yl)-4-morpholino pyridin-2(1H)-one] | 0.1 to 0.5
O=c1cc(N2CCOCC2)cc(-c2cccc3c2Sc2ccc(N[C@@H]4COC[C@@H]4N4CCOCC4)cc2S3)[nH]1 (relative stereo) [Example 1-61, cis-4-morpholino-6-(7-((4-morpholinotetrahydrofuran-3-yl)amino)thianthren-1-yl)pyridin-2(1 H)-one] | < 0.1
COC[C@H](CN(C)C1CCCCC1)Nc1ccc2c(c1)Sc1cccc(-c3cc(N4CCOCC4)cc(=O)[nH]3)c1S2 [Example 1-46-12, (S)-6-(7-((1-(Cyclohexyl (methyl)amino)-3-methoxypropan-2-yl)amino)thianthren-1-yl)-4-morpholino pyridin-2 (1H)-one] | 0.1 to 0.5
Cc1ccnc(C(C)Nc2ccc3c(c2)Cc2cccc(-c4cc(N5CCOCC5)cc(=O)[nH]4)c2O3)c1 (single isomer, unassigned) [Example 2-14-93-1, 6-(7-((1-(4-methylpyridin-2-yl)ethyl)amino)-9H-xanthen-4-yl)-4-morpholinopyridin-2(1H)-one] | 0.1 to 0.5
Cc1ccc(C(Nc2ccc3c(c2)Sc2cccc(-c4cc(N5CCOCC5)cc(=O)[nH]4)c2S3)[C@H]2CN(C)CCO2)nc1 (single isomer, unassigned) [Example 1-56-12] | < 0.1
CCOC(=O)C(C)Nc1ccc2c(c1)Sc1cccc(-c3cc(N4CCOCC4)cc(=O)[nH]3)c1S2 (stereo not shown) [Example 1-12-55, Ethyl 2-((6-(4-morpholino-6-oxo-1,6-dihydropyridin-2-yl)thianthren-2-yl)amino) propanoate] | 0.1 to 0.5
Cc1ccncc1CNc1ccc2c(c1)Sc1cccc(-c3cc(N4CCOCC4)cc(=O)[nH]3)c1O2 [Example 4-4-19, 6-(8-(((4-Methylpyridin-3-yl)methyl)amino)phenoxathiin-4-yl)-4-morpholino pyridin-2(1H)-one] | 0.1 to 0.5
CC(Nc1ccc2c(c1)Cc1cccc(-c3cc(N4CCOCC4)cc(=O)[nH]3)c1O2)C(=O)N1CCCC1 (stereo not shown) [Example 2-15, 4-Morpholino-6-(7-((1-oxo-1-(pyrrolidin-1-yl)propan-2-yl)amino)-9H-xanthen-4-yl)pyridin-2(1H)-one] | 0.1 to 0.5
COc1cnccc1CNc1ccc2c(c1)Cc1cccc(-c3cc(N4CCOCC4)cc(=O)[nH]3)c1O2 [Example 2-14-9, 6-(7-(((3-Methoxypyridin-4-yl)methyl)amino)-9H-xanthen-4-yl)-4-morpholino pyridin-2(1H)-one] | 0.1 to 0.5
CN(C)c1ncc(CN2CCC(Nc3ccc4c(c3)Cc3cccc(-c5cc(N6CCOCC6)cc(=O)[nH]5)c3O4)CC2)cn1 [Example 2-28-13, 6-(7-((1-((2-(Dimethylamino)pyrimidin-5-yl)methyl)piperidin-4-yl)amino)-9H-xanthen-4-yl)-4-morpholino pyridin-2(1H)-one] | 0.1 to 0.5
